PubChem BioAssay AID256 (DTP/NCI, 2004)
Where “and” joins values, the source holds several entries; their conditions need not be identical. Equal values may be shown once. Toxic doses and inconclusive results are not listed. The calls were made as follows: active = survival T/C of 150% or more; inactive = T/C below 125% in these data.

System: CD2F1 mice, L1210 leukemia ip, survival T/C
Assay: NCI In Vivo Anticancer Drug Screen. Data for tumor model L1210 Leukemia (intraperitoneal) in CD2F1 (CDF1) mice
Conditions: higher = longer survival
Summary of the method: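 Tumor-bearing mice (transplanted tumor) were split into treated and vehicle control groups, and the measured endpoint of each treated group was divided by that of its vehicle controls.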

[1] = endpoint: mean survival time, dose: 100.0 mg/kg/injection, schedule: Q04DX003 (ip), vehicle: saline with Tween-80
[2] = endpoint: mean survival time, dose: 200.0 mg/kg/injection, schedule: Q04DX003 (ip), vehicle: saline with Tween-80
[3] = endpoint: mean survival time, dose: 400.0 mg/kg/injection, schedule: Q04DX003 (ip), vehicle: saline with Tween-80
[4] = endpoint: mean survival time, dose: 100.0 mg/kg/injection, schedule: Q01DX001 (ip), vehicle: saline with Tween-80
[5] = endpoint: mean survival time, dose: 100.0 mg/kg/injection, schedule: Q01DX009 (ip), vehicle: saline
[6] = endpoint: mean survival time, dose: 100.0 mg/kg/injection, schedule: Q01DX001 (ip), vehicle: Klucel (hydroxypropylcellulose) (HPC)
[7] = endpoint: mean survival time, dose: 200.0 mg/kg/injection, schedule: Q01DX001 (ip), vehicle: Klucel (hydroxypropylcellulose) (HPC)
[8] = endpoint: mean survival time, dose: 50.0 mg/kg/injection, schedule: Q01DX009 (ip), vehicle: saline with Tween-80
[9] = endpoint: mean survival time, dose: 100.0 mg/kg/injection, schedule: Q01DX009 (ip), vehicle: saline with Tween-80
[10] = endpoint: mean survival time, dose: 200.0 mg/kg/injection, schedule: Q01DX009 (ip), vehicle: saline with Tween-80
[11] = endpoint: mean survival time, dose: 400.0 mg/kg/injection, schedule: Q01DX001 (ip), vehicle: Klucel (hydroxypropylcellulose) (HPC)
[12] = endpoint: mean survival time, dose: 400.0 mg/kg/injection, schedule: Q01DX009 (ip), vehicle: saline with Tween-80

Measured: T/C

O=C(COc1ccccc1)NCc1ccc(Cl)cc1
inactive: [1] 98 % of control | [2] 98 % of control | [3] 96 % of control

c1cc(-c2ncc[nH]2)ccn1
inactive: endpoint: mean survival time, dose: 25.0 mg/kg/injection, schedule: Q01DX001 (ip), vehicle: saline with Tween-80 112 % of control | endpoint: mean survival time, dose: 50.0 mg/kg/injection, schedule: Q01DX001 (ip), vehicle: saline with Tween-80 96 % of control | [4] 104 % of control

CCOC(=O)COC(CN)C(Cl)(Cl)Cl (configuration not stated)
inactive: [1] 101 % of control | [2] 97 % of control

O=CC(O)C(O)C(O)C(O)CO (configuration not stated)
inactive: [5] 93 % of control | endpoint: mean survival time, dose: 200.0 mg/kg/injection, schedule: Q01DX009 (ip), vehicle: saline 91 % of control | endpoint: mean survival time, dose: 0.2 grams/kg/injection, schedule: Q03DX003 (ip), vehicle: water 100 % of control | endpoint: mean survival time, dose: 400.0 mg/kg/injection, schedule: Q01DX009 (ip), vehicle: saline 95 % of control | endpoint: mean survival time, dose: 0.4 grams/kg/injection, schedule: Q03DX003 (ip), vehicle: water 108 % of control | endpoint: mean survival time, dose: 0.8 grams/kg/injection, schedule: Q03DX003 (ip), vehicle: water 107 % of control | endpoint: mean survival time, dose: 1.5 grams/kg/injection, schedule: Q03DX003 (ip), vehicle: water 100 % of control | endpoint: mean survival time, dose: 3.0 grams/kg/injection, schedule: Q03DX003 (ip), vehicle: water 101 % of control | endpoint: mean survival time, dose: 6.0 grams/kg/injection, schedule: Q03DX003 (ip), vehicle: water 100 % of control | endpoint: mean survival time, dose: 12.0 grams/kg/injection, schedule: Q03DX003 (ip), vehicle: water 106 % of control | endpoint: median survival time, dose: 75.0 mg/kg/injection, schedule: Q01DX009 (ip), vehicle: saline 101 % of control | endpoint: median survival time, dose: 150.0 mg/kg/injection, schedule: Q01DX009 (ip), vehicle: saline 101 % of control | endpoint: median survival time, dose: 300.0 mg/kg/injection, schedule: Q01DX009 (ip), vehicle: saline 100 % of control | endpoint: median survival time, dose: 600.0 mg/kg/injection, schedule: Q01DX009 (ip), vehicle: saline 100 % of control | endpoint: median survival time, dose: 1200.0 mg/kg/injection, schedule: Q01DX009 (ip), vehicle: saline 102 % of control

O=C1CC2CCC1C2 (configuration not stated)
inactive: endpoint: mean survival time, dose: 25.0 mg/kg/injection, schedule: Q04DX003 (ip), vehicle: Klucel (hydroxypropylcellulose) (HPC) 97 % of control | endpoint: mean survival time, dose: 50.0 mg/kg/injection, schedule: Q04DX003 (ip), vehicle: Klucel (hydroxypropylcellulose) (HPC) 98 % of control | endpoint: mean survival time, dose: 100.0 mg/kg/injection, schedule: Q04DX003 (ip), vehicle: Klucel (hydroxypropylcellulose) (HPC) 97 % of control

Cn1c(=O)c2[nH]c(-c3ccccc3[N+](=O)[O-])nc2n(C)c1=O
inactive: endpoint: mean survival time, dose: 12.5 mg/kg/injection, schedule: Q01DX005 (ip), vehicle: other 97 % of control | endpoint: mean survival time, dose: 25.0 mg/kg/injection, schedule: Q01DX005 (ip), vehicle: other 94 % of control | endpoint: mean survival time, dose: 50.0 mg/kg/injection, schedule: Q01DX005 (ip), vehicle: other 90 % of control | endpoint: mean survival time, dose: 100.0 mg/kg/injection, schedule: Q01DX005 (ip), vehicle: other 96 % of control | endpoint: mean survival time, dose: 200.0 mg/kg/injection, schedule: Q01DX005 (ip), vehicle: other 94 % of control

COc1ccc2[nH]c3c(c2c1)CCNC3CC(C)CCC=C(C)C (configuration not stated)
inactive: endpoint: mean survival time, dose: 6.25 mg/kg/injection, schedule: Q01DX009 (ip), vehicle: Klucel (hydroxypropylcellulose) (HPC) 100 % of control and 110 % of control | endpoint: mean survival time, dose: 12.5 mg/kg/injection, schedule: Q01DX009 (ip), vehicle: Klucel (hydroxypropylcellulose) (HPC) 98 % of control and 102 % of control | endpoint: mean survival time, dose: 25.0 mg/kg/injection, schedule: Q01DX009 (ip), vehicle: Klucel (hydroxypropylcellulose) (HPC) 97 % of control and 101 % of control | endpoint: mean survival time, dose: 50.0 mg/kg/injection, schedule: Q01DX009 (ip), vehicle: Klucel (hydroxypropylcellulose) (HPC) 100 % of control and 103 % of control | endpoint: mean survival time, dose: 100.0 mg/kg/injection, schedule: Q01DX009 (ip), vehicle: Klucel (hydroxypropylcellulose) (HPC) 86 % of control and 100 % of control | endpoint: mean survival time, dose: 200.0 mg/kg/injection, schedule: Q01DX009 (ip), vehicle: Klucel (hydroxypropylcellulose) (HPC) 108 % of control

O=C(O)C1C2c3ccccc3C(C1C(=O)O)[n+]1ccccc12 (configuration not stated)
inactive: endpoint: mean survival time, dose: 100.0 mg/kg/injection, schedule: Q01DX001 (ip), vehicle: saline 96 % of control | endpoint: mean survival time, dose: 200.0 mg/kg/injection, schedule: Q01DX001 (ip), vehicle: saline 102 % of control | endpoint: mean survival time, dose: 400.0 mg/kg/injection, schedule: Q01DX001 (ip), vehicle: saline 93 % of control

NC(N)=NC(N)=Nc1ccc(Cl)c(Cl)c1
inactive: endpoint: mean survival time, dose: 50.0 mg/kg/injection, schedule: Q01DX001 (ip), vehicle: Klucel (hydroxypropylcellulose) (HPC) 94 % of control | [6] 105 % of control | endpoint: mean survival time, dose: 150.0 mg/kg/injection, schedule: Q01DX009 (ip), vehicle: saline 108 % of control | [7] 94 % of control

CC(=O)Oc1ccc2c3c(cccc13)CC2
inactive: [1] 98 % of control | [2] 98 % of control | [3] 98 % of control

CC1(C)OCC(C(O)C(OC(=O)c2ccccc2)C2COC(C)(C)O2)O1 (configuration not stated)
inactive: [4] 106 % of control | endpoint: mean survival time, dose: 200.0 mg/kg/injection, schedule: Q01DX001 (ip), vehicle: saline with Tween-80 94 % of control | endpoint: mean survival time, dose: 400.0 mg/kg/injection, schedule: Q01DX001 (ip), vehicle: saline with Tween-80 105 % of control

CC1(C)OC2C(COC(=O)CI)OC(n3ccc(=O)[nH]c3=O)C2O1 (configuration not stated)
inactive: endpoint: median survival time, dose: 25.0 mg/kg/injection, schedule: Q01DX005 (ip), vehicle: Klucel (hydroxypropylcellulose) (HPC) 102 % of control | endpoint: median survival time, dose: 50.0 mg/kg/injection, schedule: Q01DX005 (ip), vehicle: Klucel (hydroxypropylcellulose) (HPC) 98 % of control

O=C1OC2CC3CCC2C13 (configuration not stated)
inactive: endpoint: mean survival time, dose: 6.25 mg/kg/injection, schedule: Q01DX009 (ip), vehicle: saline 101 % of control | endpoint: mean survival time, dose: 12.5 mg/kg/injection, schedule: Q01DX009 (ip), vehicle: saline 101 % of control | endpoint: mean survival time, dose: 25.0 mg/kg/injection, schedule: Q01DX009 (ip), vehicle: saline 95 % of control

O=C(CCl)Nc1nccs1
inactive: endpoint: mean survival time, dose: 12.5 mg/kg/injection, schedule: Q01DX009 (ip), vehicle: saline with Tween-80 100 % of control | endpoint: mean survival time, dose: 25.0 mg/kg/injection, schedule: Q01DX009 (ip), vehicle: saline with Tween-80 95 % of control | [8] 97 % of control | [9] 92 % of control

O=C(O)CCC(C(=O)O)c1ccccc1 (configuration not stated)
inactive: endpoint: mean survival time, dose: 75.0 mg/kg/injection, schedule: Q01DX001 (ip), vehicle: saline 98 % of control | endpoint: mean survival time, dose: 150.0 mg/kg/injection, schedule: Q01DX001 (ip), vehicle: saline 101 % of control | endpoint: mean survival time, dose: 300.0 mg/kg/injection, schedule: Q01DX001 (ip), vehicle: saline 104 % of control

NNC(=O)c1ccc(C(=O)NN)cc1
inactive: [6] 91 % of control | [9] 97 % of control | [1] 94 % of control | [7] 100 % of control | [10] 107 % of control | [2] 96 % of control | [11] 88 % of control | [12] 104 % of control | [3] 96 % of control

C=CCN1C(=O)c2ccccc2C1=O
inactive: [9] 98 % of control | [1] 97 % of control | [10] 94 % of control | [2] 101 % of control | [12] 100 % of control | [3] 101 % of control

CC(=O)CC(C)(C)S(=O)(=O)Cc1ccccc1
inactive: [6] 93 % of control | [7] 96 % of control | [11] 96 % of control

N#Cc1nc2c(nc1N)CCCCCCCCCC2
inactive: [6] 87 % of control | [7] 87 % of control | [11] 87 % of control

O=S(=O)(Nc1cc(N2CCCCC2)c(NS(=O)(=O)c2ccccc2)cc1N1CCCCC1)c1ccccc1
inactive: [6] 88 % of control | [7] 98 % of control | [11] 90 % of control

CC(C)N(CCCC#N)C(C)C
inactive: endpoint: mean survival time, dose: 50.0 mg/kg/injection, schedule: Q01DX009 (ip), vehicle: saline 96 % of control | [5] 95 % of control | [1] 97 % of control | [2] 89 % of control

O=C(O)CC1CCC1CC(=O)O (configuration not stated)
inactive: [8] 90 % of control | [9] 96 % of control and 100 % of control | [10] 96 % of control and 103 % of control

COc1cc(OC)c(NC(=O)C(=O)Nc2cc(Cl)c(OC)cc2OC)cc1Cl
inactive: [8] 88 % of control | [9] 88 % of control | [10] 91 % of control

CCOC(=O)/C(=C(\[O-])OCC)[n+]1ccccc1
inactive: [1] 97 % of control | [2] 100 % of control | [3] 100 % of control

Cc1ccc(NC(=O)NC2CCCCC2)cc1
inactive: [1] 93 % of control | [2] 90 % of control | [3] 93 % of control

CCCCCCCCCCCCCCCCOc1ccc(C(C)=O)cc1
inactive: [10] 89 % of control | [12] 96 % of control

CCCCNC(C)(C)C(SSSC(c1ccc(C(F)(F)F)cc1)C(C)(C)NCCCC)c1ccc(C(F)(F)F)cc1 (configuration not stated)
inactive: endpoint: mean survival time, dose: 100.0 mg/kg/injection, schedule: Q04DX003 (ip), vehicle: saline 92 % of control | endpoint: mean survival time, dose: 200.0 mg/kg/injection, schedule: Q04DX003 (ip), vehicle: saline 94 % of control | endpoint: mean survival time, dose: 400.0 mg/kg/injection, schedule: Q04DX003 (ip), vehicle: saline 100 % of control
